Where “and” joins values, the source holds several entries; their conditions need not be identical. Equal entries are not always repeated. Where two headings read alike, the source gives them in different places.
How the values were obtained:
[1] = test system: C57BL/6 responder splenocytes from WT mice; assay: One-way mixed lymphocyte reaction (MLR), [3H]-thymidine incorporation, wild-type responder splenocytes; type: cell-based, mouse; conditions: for Inhibition of the MLR: WT splenocytes, agonist 16 and 32 μM, 3 h
Method: The MLR assay is a common method used to evaluate the cellular immune responses from two different individuals or animals and is considered to be an in vitro correlate of skin and organ transplant rejection. Lymphocytes from two different populations can be incubated together in which the T cells recognize the foreign cells from the other strain, become activated, proliferate and take up tritiated thymidine ([^3H]-thymidine). Results from this assay (Examples 1, 2 and 4) are expressed as a Suppression Index (SI), where untreated spleen cells are given a value of 1.00 (100%), and responses of cultures receiving treatment with cannabinoids are calculated as: […]
All SI data were transformed to normalized ranks to accommodate non-normality of the data. ANOVA was used to test for significant differences between groups.
The aim of the next series of experiments was to test the hypothesis that suppression of proliferation in the MLR is a CB2 receptor-mediated function.

MLR culture cells = assay: Cell viability in MLR cultures by flow cytometry (LIVE/DEAD stain); type: cell-based, mouse; conditions: parallel MLR cultures
Method: Lastly, cultures were run in parallel with each experimental MLR and tested by flow cytometry to assess viability using LIVE/DEAD® Fixable Dead Cell Stain Kit (Molecular Probes, Inc.; Eugene, Oreg.). Cells (1×10^6) from the culture were resuspended in 1 ml FCM Staining Buffer and incubated for 30 min at room temperature with 1 μl dead cell stain. Cells were washed twice and resuspended in FCM staining buffer and analyzed using an LSRII (BD Biosciences) flow cytometer, and the data were analyzed using FACSDiva™ software (BD Biosciences).

[2] = test system: CD3+ cells (T cells) and CD11b+ cells; type: cell-based, mouse; conditions: 1-32 μM, 3 hours, fractions added back
CD3+ T-cell population = assay: mRNA expression (microarray/qPCR) in CD3+ T-cells from the MLR; type: cell-based, mouse; conditions: 32 μM/ml, 18 hours, vs vehicle
Method: This experiment was carried out to screen for molecules that are modulated by exposure of mouse spleen cells to the CB2 receptor agonist (FIG. 6). The experiment used a commercial microarray (Qiagen) that tests the levels of 89 different mRNAs. Spleen cells were placed in culture to carry out a standard Mixed Lymphocyte Reaction (MLR) assay. Experimental wells received 32 μM/ml of the selective CB2 receptor agonist, O-1966, and control wells received vehicle (0.4% ethanol). […] The decrease in CD40L and Cyclin D3 mRNA was significant because CD40L is an activation molecule for T-cells, and Cyclin D3 is a molecule involved in cell division. T-cell activation and division are decreased after exposure to the selective CB2 receptor agonist.

IL-10 release in the MLR = assay: IL-10 release in the MLR; type: cell-based, mouse; conditions: 32 μM, supernatants after 24 hours
Method: An MLR assay was performed in which experimental wells received 32 μM/ml of O-1966 and control wells received vehicle (FIGS. 7 and 9). Supernatants were collected after 24 hours. […] IL-10 is an immunosuppressive cytokine, so its rise induced by the CB2 receptor agonist provides a mechanism of action for the cannabinoid in suppressing the MLR. In a separate MLR some wells received 1.6 μg/ml of anti-IL-10 antibody. Wells that received no antibody and 32 μM 0-1966 had 90% suppression of proliferation compared to untreated cells. Cells that were treated with anti-IL-10 antibody and 32 μM O-1966 had 43% suppression of proliferation compared to wells that received anti-IL-10 antibody only.

Tregs = Tregs (Foxp3+ CD4+) in the MLR by flow cytometry; type: cell-based, mouse; conditions: 48 hours
Method: An MLR assay was performed in which experimental wells received 32 μM/ml of O-1966 and control wells received vehicle (FIG. 8). At 48 hours, cells were harvested and stained for expression of Foxp3 and CD4 (Cells that are double positive for these two markers are considered Tregs). Cells were analyzed for marker expression by flow cytometry. Wells that received no treatment had 2.1%+/−0.14 Tregs compared to wells that were treated with 32 μM O-1966 which had 4.3%+/−0.27 Tregs. These differences were statistically significant, as 20,000 cells were counted in each group. Tregs are a relatively newly recognized subset of T-cells that suppress T-cell immune responses. Thus, an increase their number induced by the CB2 receptor agonist provides a second mechanism by which the cannabinoid is altering T-cell responsiveness in the MLR assay.
An MLR was performed in which some wells received 1.6 μg/ml of anti-IL-10 antibody (FIG. 10). Cells were harvested at 48 hours and stained as described under #3 above for Tregs. Cells that received 32 μM O-1966 and no anti-IL-10 antibody had 4.3%+/−0.28 Tregs. Wells that received only anti-IL-10 antibody and no O-1966, had 1.7%+/−0.16 Tregs. Wells that received anti-IL-10 antibody in addition to 32 μM O-1966 had 2.9%+/−0.25 Tregs.

[3] = test system: C57Bl/6 mice with skin grafts from C3HeB/FeJ mice; assay: Skin graft rejection in mice; type: in vivo, mouse; conditions: 5 mg/kg intraperitoneal every other day for 14 days
Method: Groups of C57Bl/6 mice received skin grafts from C3HeB/FeJ mice that are histoincompatible (FIG. 11). Starting one hour before grafting mice were treated by intraperitoneal injection with either 5 mg/kg of the CB2 receptor agonist, O-1966, or vehicle. (Volumes were based on weight. but were usually approximately 0.2 ml.) every other day for 14 days, and monitored for graft rejection. Mice that received O-1966 treatment had viable grafts 2.7 days longer than vehicle treated mice, which was statistically significant.

[4] = test system: splenocytes from skin graft recipient mice; assay: Ex vivo MLR of splenocytes from treated skin graft recipient mice; set-up: species or system mouse; conditions: 5 mg/kg every other day 14 days; spleens day 14; 48 hr in culture
Method: Splenocytes from O-1966 treated skin graft recipient mice have decreased proliferation in an ex vivo MLR. (FIG. 12). Groups of mice received skin grafts and were treated with either 5 mg/kg O-1966 or vehicle every other day for 14 days. Spleens were removed on day 14 and placed in an MLR assay. The cells were restimulated in vitro with splenocytes from an incompatible mouse strain, but they received no additional treatment with a cannabinoid in vitro.

splenic Tregs = assay: Splenic Tregs of treated skin graft recipient mice by flow cytometry; type: in vivo, mouse
Method: O-1966 treated mice that received skin grafts have an increased percentage of splenic Tregs. (FIGS. 13 and 14): Spleen cells taken from the animals described in C1 above were harvested from animals, and a sample was immediately analyzed by flow cytometry. Another sample was placed in culture for 48 hours. […] Cells that were harvested after 48 hours in the MLR had 4.75% Tregs in the vehicle treated mice and 9.7% Tregs in the O-1966 treated mice.

[5] = Spleen weight of treated skin graft recipient mice; type: in vivo, mouse; conditions: Day 14, 5 mg/kg every other day
From the text: Spleens were removed on Day 14 and weighed. Spleens from vehicle treated mice were 0.093+/−0.01 grams and spleens from O-1966 mice were 0.077+/−0.006 grams. Spleens of untreated mice average 0.072+/−0.009 grams (historical data). The average spleen weight index ([spleen weight/body weight]×100) was 0.46% in vehicle treated mice and 0.38% in O-1966 treated mice.

[6] = test system: IL-2 release from splenocytes from CB2R-/- KO mice; assay: IL-2 release in MLR supernatants by ELISA, CB2R-/- KO splenocytes; conditions: supernatants at 24 hours
[7] = test system: C57BL/6 responder splenocytes from WT mice; conditions: added to unfractionated murine spleen cells; previously shown by the inventors; cited from earlier work
mouse splenocytes = conditions: primary and secondary in vitro assays; earlier work of the inventors; cited from earlier work

CCCn1c(C)c(C(=O)c2cccc3ccccc23)c2ccccc21 [JWH-015, reference compound]
Inhibition of the MLR [1]: markedly inhibited the MLR

CCCCCCC(C)(C)c1cc(OC)c(C2(O)CCCC(C)C2)c(OC)c1 (centres unmarked) [O-1966, 1-{4-(1,1-Dimeyhyl-heptyl)-2,6-dimethoxy-phenyl}-3-methyl-cyclohexanol]
Suppression of proliferation ([1]; 32 μM plus 1.6 μg/ml anti-IL-10 antibody, compared to antibody only): 43%
Suppression of proliferation ([1]; 32 μM, no antibody, compared to untreated cells): 90%
Inhibition of the MLR [1]: markedly inhibited the MLR
Effect on cell death (live versus dead cells) (MLR culture cells): did not affect cell death
SI values, CD3+ treated versus CD11b+ treated fractions [2]: selectively reduced the SI values for cultures in which the CD3^+ cells were treated
CD40L mRNA expression (CD3+ T-cell population): −4.60 fold
Cyclin D3 mRNA expression (CD3+ T-cell population): −4.10 fold
IL-10 mRNA expression (CD3+ T-cell population): 4.74 fold
Sla2 mRNA expression (CD3+ T-cell population): 4.75 fold
Socs5 mRNA expression (CD3+ T-cell population): 4.37 fold
IL-10 release in the MLR (IL-10 release in the MLR): 96.75 pg/mL
Increase of IL-10 release in the MLR (IL-10 release in the MLR): 2.46 fold
Tregs (Foxp3+ CD4+) (Tregs; 32 μM O-1966 plus 1.6 μg/ml anti-IL-10 antibody): 2.9%+/−0.25
Tregs (Foxp3+ CD4+) (Tregs; 32 μM, no anti-IL-10 antibody): 4.3%+/−0.27 and 4.3%+/−0.28
Viable grafts longer than vehicle treated mice [3]: 2.7 days
Decreased proliferation in ex vivo MLR compared to vehicle treated mice [4]: 50%
Tregs (CD4+, Foxp3+) of the CD4 cells (splenic Tregs; analyzed immediately after sacrifice, day 14, 5 mg/kg): 32.2%
Tregs after 48 hours in the MLR (splenic Tregs; ex vivo MLR 48 hours, 5 mg/kg in vivo): 9.7%
Average spleen weight index ([spleen weight/body weight]×100) [5]: 0.38%
Spleen weight [5]: 0.077+/−0.006 grams
Inhibition of IL-2 release [6]: without effect

CCCCCc1cc(O)c2c(c1)OC(C)(C)[C@@H]1CCC(C)=C[C@@H]21 [THC (Marinol), Δ^9-tetrahydrocannabinol]
Inhibition of the MLR [7]: inhibit the MLR
Immunosuppression in plaque-formation cell assays (mouse splenocytes): induce dose-related immunosuppression

CCCCC/C=C\C/C=C\C/C=C\C/C=C\CCCC(=O)NCCO [anandamide, arachidonoylethanolamide]
Immunosuppression in plaque-formation cell assays (mouse splenocytes): induce dose-related immunosuppression

SR144528 [reference compound]
Block of suppression of the MLR by JWH-015 and O-1966 ([1]; antagonist 32-320 μM added 2 h before agonist (16 and 32 μM)): blocked suppression

— patent publication US9855225B2, “Cannabinoid receptor treatments” (TEMPLE UNIVERSITY OFFICE OF TECHNOLOGY TRANSFER, priority 2011, dated 2018)
